# From US10112890B2, “Compound, salt of compound, external agent for skin, cosmetic, and food additive” (SHOWA DENKO K.K., priority 2015, dated 2018)
# System: three-dimensionally cultured human skin model ("EPI-606X")
# Assay: Skin permeability test
# Format: in vitro ADME
# Conditions: 24 hours; for Permeability (%): permeability into the skin model, 0.2% by mass sample solution in PBS (-), pH 7.4, 700 μL, 37° C., skin model extract plus receiver liquid, HPLC, (A/1400)×100; for permeability compared with compound (9)-101 / permeability compared with sodium pantothenate: skin model, comparison in words
# Source text: The compound (1)-301, the compound (1)-302, the compound (9)-101, and sodium pantothenate (manufactured by Tokyo Kasei Kogyo Co., Ltd., the compound represented by the following formula) were respectively dissolved in Dubecco's PBS (−), and the pH of a solution was adjusted to 7.4 using a sodium hydroxide aqueous solution or hydrochloric acid, to obtain a solution having a concentration of 0.2% by mass as a sample solution. A three-dimensionally cultured human skin model (“EPI-606X”, manufactured by KURABO INDUSTRIES LTD.) was set such that the lower portion thereof was immersed in a 6-well plate containing the PBS solution (1 mL), and was allowed to stand in an incubator for 30 minutes under conditions of 37° C. at a carbon dioxide concentration of 5%. Next, the PBS solution was replaced with an HBSS (−) solution (1 mL) (hereinafter, referred to as a “receiver liquid”), the sample solution (700 μL) obtained in the above-described manner was added to the skin model, and the skin model was allowed to stand in an incubator under conditions of 37° C. at a carbon dioxide concentration of 5%. After the skin model was allowed to stand for 24 hours, the sample solution on the skin model was removed using a pipette, the skin model was taken out from the well and washed with the PBS (−) solution. Subsequently, a slice was cut from the skin model and put into a 2 mL tube. Methanol (1 mL) and stainless steel beads (manufactured by Tomy Company, Ltd., diameter of 5.5 mm) were added to the tube, and the slice was crushed under conditions of 2000 rpm for 10 seconds ten times using MULTI BEADS SHOCKER (manufactured by Yasui Kikai Corporation). After the slice was crushed, the obtained solution was transferred to a 2 mL Eppendorf tube and centrifuged at 12000 rpm for 5 minutes, the supernatant was filtered using a filter (pore size of 0.22 μm), thereby obtaining a skin model extract. Next, the compound (1)-301, the compound (1)-302, the compound (9)-101, and sodium pantothenate in the skin model extract and the receiver liquid were quantified by analyzing each of the compounds (test substances) using HPLC described above, and a total value A (μg) of these quantitative values was calculated. Further, the permeability into the skin model (%) of each of the compound (1)-301 (Example 1), the compound (1)-302 (Example 2), the compound (9)-101 (Reference Example 1), and sodium pantothenate (Comparative Example 1) added to the skin model was calculated according to Equation (i). Permeability (%)=(A/1400)×100 (i)
Structure (SMILES),Permeability (%),permeability compared with compound (9)-101,permeability compared with sodium pantothenate
"CCCCCCCCC(CCCCCC)C(=O)OCC(C)(C)C(O)C(=O)NCCC(=O)O (stereo not drawn) [Compound (1)-302, 3-[N-(4-(2-hexyldecanoyl)oxy-3,3-dimethyl-2-hydroxybutyryl)amino]propionic acid]",44 ± 2.7,clearly higher permeability,clearly higher permeability
"CCCCCCCCCC(=O)OCC(C)(C)C(O)C(=O)NCCC(=O)O (stereo not drawn) [Compound (9)-101, 3-[N-(4-decanoyloxy-3,3-dimethyl-2-hydroxybutyryl)amino]propionic acid, reference compound]",29 ± 0.8,,clearly higher permeability
"CC(C)(CO)[C@@H](O)C(=O)NCCC(=O)[O-].[Na+] [Sodium pantothenate, sodium pantothenate, reference compound]",18 ± 0.4,,
"CCCCCCCCCCCCCCCC(=O)OCC(C)(C)C(O)C(=O)NCCC(=O)O (stereo not drawn) [Compound (1)-301, 3-[N-(4-hexadecanoyloxy-3,3-dimethyl-2-hydroxybutyryl)amino]propionic acid]",41 ± 4.7,clearly higher permeability,clearly higher permeability
